According to PubChem BioAssay AID1845208 (Molecular Pharmacology Branch, DTP, NCI, 2023):
Where “and” joins values, the source holds several entries; their conditions need not be identical. Equal entries are not always repeated.

Test system: NCI-H196 SCLC complex tumor spheroid viability
Assay: Anticancer human tumor NCI-H196 cell line growth inhibition;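 note: spheroids exposed to compounds for 7 days before readout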;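 for viability, T/C: 100% = DMSO vehicle control wells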
Conditions: for viability, T/C: stronger effect = lower value
In short: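 Complex spheroids of malignant cells with endothelial cells and mesenchymal stem cells; agents alone or combined, from near clinical Cmax (or 10 microM if unknown) down in half-log steps, 0.25% DMSO final.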

[1] = curve of first compound, second compound 0.003 µM

O=C(c1cc(Cc2n[nH]c(=O)c3ccccc23)ccc1F)N1CCN(C(=O)C2CC2)CC1 + COc1cc2c(cc1O)CCNC21CSC2c3c(OC(C)=O)c(C)c4c(c3C(COC1=O)N1C(O)C3Cc5cc(C)c(OC)c(O)c5C(C21)N3C)OCO4 was tested, and the IC50 (curve of first compound, second compound 30 pM) was greater than 30 µM, the IC50 (curve of first compound, second compound 94.9 pM) was greater than 30 µM and the IC50 (curve of first compound, second compound 0.0003 µM) was greater than 30 µM. It also gave an IC50 (curve of first compound, second compound 0.000949 µM) greater than 30 µM, an IC50 [1] of less than 0.0949 µM and a viability, T/C (second compound 30 pM, first compound 0.0949 µM) of 107%. The viability, T/C (second compound 30 pM, first compound 0.3 µM) was 105%, the viability, T/C (second compound 30 pM, first compound 0.949 µM) was 101% and the viability, T/C (second compound 30 pM, first compound 3 µM) was 98.9%. It also gave a viability, T/C (second compound 30 pM, first compound 9.49 µM) of 85.5%, a viability, T/C (second compound 30 pM, first compound 30 µM) of 67.2% and a viability, T/C (second compound 94.9 pM, first compound 0.0949 µM) of 104%. It also gave a viability, T/C (second compound 94.9 pM, first compound 0.3 µM) of 102%, a viability, T/C (second compound 94.9 pM, first compound 0.949 µM) of 102% and a viability, T/C (second compound 94.9 pM, first compound 3 µM) of 93.7%. For the same compound, the viability, T/C (second compound 94.9 pM, first compound 9.49 µM) was 91.5%, the viability, T/C (second compound 94.9 pM, first compound 30 µM) was 62.7% and the viability, T/C (second compound 0.0003 µM, first compound 0.0949 µM) was 99.6%. The viability, T/C (second compound 0.0003 µM, first compound 0.3 µM) was 105%, the viability, T/C (second compound 0.0003 µM, first compound 0.949 µM) was 99.5% and the viability, T/C (second compound 0.0003 µM, first compound 3 µM) was 92%. The viability, T/C (second compound 0.0003 µM, first compound 9.49 µM) was 84.3%, the viability, T/C (second compound 0.0003 µM, first compound 30 µM) was 66% and the viability, T/C (second compound 0.000949 µM, first compound 0.0949 µM) was 86.4%. For the same compound, the viability, T/C (second compound 0.000949 µM, first compound 0.3 µM) was 86.9%, the viability, T/C (second compound 0.000949 µM, first compound 0.949 µM) was 80.7% and the viability, T/C (second compound 0.000949 µM, first compound 3 µM) was 78.5%. The viability, T/C (second compound 0.000949 µM, first compound 9.49 µM) was 68.9%, the viability, T/C (second compound 0.000949 µM, first compound 30 µM) was 54.4% and the viability, T/C (second compound 0.003 µM, first compound 0.0949 µM) was 3.15%. It also gave a viability, T/C (second compound 0.003 µM, first compound 0.3 µM) of 6.44%, a viability, T/C (second compound 0.003 µM, first compound 0.949 µM) of 3.39% and a viability, T/C (second compound 0.003 µM, first compound 3 µM) of 1.87%. It also gave a viability, T/C (second compound 0.003 µM, first compound 9.49 µM) of 0.89% and a viability, T/C (second compound 0.003 µM, first compound 30 µM) of 1.4%.

CC1COCCN1c1cc(-c2ccnn2C)c2ccnc(-c3ccn[nH]3)c2n1 (configuration not stated) was tested, and the viability, T/C (compound 0.0316 µM) was 85.4% and 90.9% and 88.6%, the viability, T/C (compound 0.1 µM) was 76.7% and 72.3% and 79.4% and the viability, T/C (compound 0.316 µM) was 65.1% and 66% and 67.1%. For the same compound, the viability, T/C (compound 1 µM) was 60.3% and 53.1% and 61.3%, the viability, T/C (compound 3.16 µM) was 53% (2×) and 49.1% and the viability, T/C (compound 10 µM) was 44.3% and 46.2% and 48.6%. For the same compound, the IC50 (curve of compound) was 4.36 µM and 2.77 µM and 7.31 µM.

With COc1ccc([C@@H](O)c2cc(-c3ncnc4cc(N5CCOCC5)ccc34)c(F)cc2Cl)nn1 + CC[C@@]1(O)C(=O)OCc2c1cc1n(c2=O)Cc2cc3c(CN(C)C)c(O)ccc3nc2-1 the IC50 [1] was greater than 10 µM, the IC50 (curve of first compound, second compound 0.00949 µM) was greater than 10 µM and the IC50 (curve of first compound, second compound 0.03 µM) was 5.95 µM. The IC50 (curve of first compound, second compound 0.0949 µM) was 2.63 µM, the IC50 (curve of first compound, second compound 0.3 µM) was 2.61 µM and the viability, T/C (second compound 0.003 µM, first compound 0.0316 µM) was 100%. The viability, T/C (second compound 0.003 µM, first compound 0.1 µM) was 99.6%, the viability, T/C (second compound 0.003 µM, first compound 0.316 µM) was 90.8% and the viability, T/C (second compound 0.003 µM, first compound 1 µM) was 82.3%. The viability, T/C (second compound 0.003 µM, first compound 3.16 µM) was 69.2%, the viability, T/C (second compound 0.003 µM, first compound 10 µM) was 55.2% and the viability, T/C (second compound 0.00949 µM, first compound 0.0316 µM) was 98%. The viability, T/C (second compound 0.00949 µM, first compound 0.1 µM) was 97.1%, the viability, T/C (second compound 0.00949 µM, first compound 0.316 µM) was 95.5% and the viability, T/C (second compound 0.00949 µM, first compound 1 µM) was 88.9%. The viability, T/C (second compound 0.00949 µM, first compound 3.16 µM) was 65.7%, the viability, T/C (second compound 0.00949 µM, first compound 10 µM) was 52.8% and the viability, T/C (second compound 0.03 µM, first compound 0.0316 µM) was 93.5%. The viability, T/C (second compound 0.03 µM, first compound 0.1 µM) was 92.3%, the viability, T/C (second compound 0.03 µM, first compound 0.316 µM) was 88.1% and the viability, T/C (second compound 0.03 µM, first compound 1 µM) was 72.5%. For the same compound, the viability, T/C (second compound 0.03 µM, first compound 3.16 µM) was 58.6%, the viability, T/C (second compound 0.03 µM, first compound 10 µM) was 43.5% and the viability, T/C (second compound 0.0949 µM, first compound 0.0316 µM) was 99.8%. The viability, T/C (second compound 0.0949 µM, first compound 0.1 µM) was 102%, the viability, T/C (second compound 0.0949 µM, first compound 0.316 µM) was 93.5% and the viability, T/C (second compound 0.0949 µM, first compound 1 µM) was 70.2%. It also gave a viability, T/C (second compound 0.0949 µM, first compound 3.16 µM) of 46.2%, a viability, T/C (second compound 0.0949 µM, first compound 10 µM) of 39.5% and a viability, T/C (second compound 0.3 µM, first compound 0.0316 µM) of 107%. It also gave a viability, T/C (second compound 0.3 µM, first compound 0.1 µM) of 104%, a viability, T/C (second compound 0.3 µM, first compound 0.316 µM) of 88.8% and a viability, T/C (second compound 0.3 µM, first compound 1 µM) of 71.9%. For the same compound, the viability, T/C (second compound 0.3 µM, first compound 3.16 µM) was 43.1% and the viability, T/C (second compound 0.3 µM, first compound 10 µM) was 37.1%.

For COc1cc(C)[nH]c(=O)c1CN1CCc2c(Cl)cc(C(OC)C3COC3)c(Cl)c2C1=O (configuration not stated) + Cn1nnc2c(C(N)=O)ncn2c1=O, the IC50 (curve of first compound, second compound 1 µM) was greater than 10 µM, the IC50 (curve of first compound, second compound 3.16 µM) was greater than 10 µM and the IC50 (curve of first compound, second compound 10 µM) was greater than 10 µM. It also gave an IC50 (curve of first compound, second compound 31.6 µM) greater than 10 µM, an IC50 (curve of first compound, second compound 100 µM) greater than 10 µM and a viability, T/C (second compound 1 µM, first compound 0.0316 µM) of 91.4%. For the same compound, the viability, T/C (second compound 1 µM, first compound 0.1 µM) was 103%, the viability, T/C (second compound 1 µM, first compound 0.316 µM) was 89.9% and the viability, T/C (second compound 1 µM, first compound 1 µM) was 86.8%. The viability, T/C (second compound 1 µM, first compound 3.16 µM) was 94%, the viability, T/C (second compound 1 µM, first compound 10 µM) was 92% and the viability, T/C (second compound 3.16 µM, first compound 0.0316 µM) was 95.2%. It also gave a viability, T/C (second compound 3.16 µM, first compound 0.1 µM) of 98.8%, a viability, T/C (second compound 3.16 µM, first compound 0.316 µM) of 99.2% and a viability, T/C (second compound 3.16 µM, first compound 1 µM) of 105%. The viability, T/C (second compound 3.16 µM, first compound 3.16 µM) was 90.9%, the viability, T/C (second compound 3.16 µM, first compound 10 µM) was 97.3% and the viability, T/C (second compound 10 µM, first compound 0.0316 µM) was 106%. The viability, T/C (second compound 10 µM, first compound 0.1 µM) was 104%, the viability, T/C (second compound 10 µM, first compound 0.316 µM) was 99.7% and the viability, T/C (second compound 10 µM, first compound 1 µM) was 103%. For the same compound, the viability, T/C (second compound 10 µM, first compound 3.16 µM) was 98.2%, the viability, T/C (second compound 10 µM, first compound 10 µM) was 102% and the viability, T/C (second compound 31.6 µM, first compound 0.0316 µM) was 104%. The viability, T/C (second compound 31.6 µM, first compound 0.1 µM) was 107%, the viability, T/C (second compound 31.6 µM, first compound 0.316 µM) was 101% and the viability, T/C (second compound 31.6 µM, first compound 1 µM) was 106%. It also gave a viability, T/C (second compound 31.6 µM, first compound 3.16 µM) of 99%, a viability, T/C (second compound 31.6 µM, first compound 10 µM) of 105% and a viability, T/C (second compound 100 µM, first compound 0.0316 µM) of 102%. The viability, T/C (second compound 100 µM, first compound 0.1 µM) was 98.9%, the viability, T/C (second compound 100 µM, first compound 0.316 µM) was 99.3% and the viability, T/C (second compound 100 µM, first compound 1 µM) was 87.1%. The viability, T/C (second compound 100 µM, first compound 3.16 µM) was 96.4% and the viability, T/C (second compound 100 µM, first compound 10 µM) was 94.7%.
